According to US7767659B2, “Synthesis of naturally occurring ecteinascidins and related compounds” (Pharma Mar, S.A., priority 2002, dated 2010):

Experiments:
[1] = system: HeLa; assay: Inhibition of cells growth by colorimetric assay (SRB); details: Homo sapiens, HeLa, 48 h; for GI50: read-out: HELA GI50; for CC50: read-out: HELA LC50; for IC (TGI): read-out: HELA TGI
Procedure, shortened: (§1)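 Colorimetric SRB read (490 nm) on triplicate wells after 48 h at 37 °C, 5% CO2. Dose range 10 to 10^−8 μg/ml; 5×10^3 cells/well pre-attached 18 h.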

[2] = system: SK-MEL-28; assay: as above; details: Homo sapiens, SK-MEL-28, 48 h; for GI50: read-out: MEL-28 GI50; for CC50: read-out: MEL-28 LC50; for IC (TGI): read-out: MEL-28 TGI
Procedure, shortened: as §1

[3] = system: IGROV-1; assay: as above; details: Homo sapiens, IGROV-1, 48 h; for GI50: read-out: IGROV GI50; for CC50: read-out: IGROV LC50; for IC (TGI): read-out: IGROV TGI
Procedure, shortened: as §1

[4] = system: IGROV-ET; assay: as above; details: Homo sapiens, 48 h; for GI50: read-out: IGROV-ET GI50; for CC50: read-out: IGROV-ET LC50; for IC (TGI): read-out: IGROV-ET TGI
Procedure, shortened: as §1

[5] = system: HeLa-APL; assay: as above; details: Homo sapiens, 48 h; for GI50: read-out: HELA-APL GI50; for CC50: read-out: HELA-APL LC50; for IC (TGI): read-out: HELA-APL TGI
Procedure, shortened: as §1

[6] = system: SK-BR-3; assay: as above; details: Homo sapiens, SK-BR-3, 48 h; for GI50: read-out: SK-BR3 GI50; for CC50: read-out: SK-BR3 LC50; for IC (TGI): read-out: SK-BR3 TGI
Procedure, shortened: as §1

[7] = system: LNCaP; assay: as above; details: Homo sapiens, LNCaP, 48 h; for GI50: read-out: LNCAP GI50; for CC50: read-out: LNCAP LC50; for IC (TGI): read-out: LNCAP TGI
Procedure, shortened: as §1

[8] = system: PANC-1; assay: as above; details: Homo sapiens, PANC-1, 48 h; for GI50: read-out: PANC-1 GI50; for CC50: read-out: PANC-1 LC50; for IC (TGI): read-out: PANC-1 TGI
Procedure, shortened: as §1

[9] = system: DU-145; assay: as above; details: Homo sapiens, DU-145, 48 h; for GI50: read-out: DU145 GI50; for CC50: read-out: DU145 LC50; for IC (TGI): read-out: DU145 TGI
Procedure, shortened: as §1

[10] = system: K-562; assay: as above; details: Homo sapiens, K562, 48 h; for GI50: read-out: K562 GI50; for CC50: read-out: K562 LC50; for IC (TGI): read-out: K562 TGI
Procedure, shortened: as §1

[11] = system: LoVo-Dox; assay: as above; details: Homo sapiens, 48 h; for GI50: read-out: LOVO-DOX GI50; for CC50: read-out: LOVO-DOX LC50; for IC (TGI): read-out: LOVO-DOX TGI
Procedure, shortened: as §1

[12] = system: A-549; assay: cells; details: Homo sapiens, A549, 48 h; for GI50: read-out: A549 GI50; for CC50: read-out: A549 LC50; for IC (TGI): read-out: A549 TGI
Procedure, shortened: as §1

[13] = system: LoVo; assay: cells; details: Homo sapiens, LoVo, 48 h; for GI50: read-out: LOVO GI50; for CC50: read-out: LOVO LC50; for IC (TGI): read-out: LOVO TGI
Procedure, shortened: as §1

[14] = system: HT-29; assay: cells; details: Homo sapiens, HT-29, 48 h; for GI50: read-out: HT29 GI50; for CC50: read-out: HT29 LC50; for IC (TGI): read-out: HT29 TGI
Procedure, shortened: as §1

`COc1c(C)cc2c(c1O)[C@H]1N[C@@H](C2)[C@H](O)N2C1[C@@H]1SC[C@]3(NCCc4c3[nH]c3ccccc43)C(=O)OC[C@H]2c2c3c(c(C)c(OC(C)=O)c21)OCO3` (stereo partly drawn) [compound 63] was tested, and the GI50 [1] was 3.16 nM, the CC50 [1] was 12.5 nM and the IC (TGI) [1] was 6.29 nM. It also gave a GI50 [2] of 5.64 nM, a CC50 [2] of 52.6 nM and an IC (TGI) [2] of 17 nM. The GI50 [3] was 5.4 nM, the CC50 [3] was 4.49 nM and the IC (TGI) [3] was 15 nM. For the same molecule, the GI50 [4] was 75.9 nM, the CC50 [4] was 13300 nM and the IC (TGI) [4] was 537 nM. For the same molecule, the GI50 [5] was 11 nM, the CC50 [5] was 150 nM and the IC (TGI) [5] was 39.8 nM. For the same molecule, the GI50 [6] was 3.93 nM, the CC50 [6] was 198 nM and the IC (TGI) [6] was 8.98 nM. For the same molecule, the GI50 [7] was 2.86 nM, the CC50 [7] was 10 nM and the IC (TGI) [7] was 5.36 nM. It also gave a GI50 [8] of 4.6 nM, a CC50 [8] of 4270 nM and an IC (TGI) [8] of 17.4 nM. For the same molecule, the GI50 [9] was 3.48 nM, the CC50 [9] was 4400 nM and the IC (TGI) [9] was 7.24 nM. For the same molecule, the GI50 [10] was 3.86 nM, the CC50 [10] was 634 nM and the IC (TGI) [10] was 7.92 nM. It also gave a GI50 [11] of 398 nM, a CC50 [11] of 13500 nM and an IC (TGI) [11] of 1090 nM. For the same molecule, the GI50 [12] was 24 nM, the CC50 [12] was 273 nM and the IC (TGI) [12] was 61.4 nM. It also gave a GI50 [13] of 8.63 nM, a CC50 [13] of 13500 nM and an IC (TGI) [13] of 54.8 nM. The GI50 [14] was 9.17 nM, the CC50 [14] was 13500 nM and the IC (TGI) [14] was 327 nM.
`COc1ccc2[nH]c3c(c2c1)CCN[C@]31CS[C@@H]2c3c(OC(C)=O)c(C)c4c(c3[C@H](COC1=O)N1C2[C@@H]2N[C@@H](Cc3cc(C)c(OC)c(O)c32)[C@@H]1O)OCO4` (stereo partly drawn) [compound 64] gave a GI50 [1] of 2.4 nM, a CC50 [1] of 10 nM and an IC (TGI) [1] of 4.89 nM. The GI50 [2] was 2.65 nM, the CC50 [2] was 20.5 nM and the IC (TGI) [2] was 6.24 nM. The GI50 [3] was 1.78 nM, the CC50 [3] was 10.9 nM and the IC (TGI) [3] was 4.41 nM. The GI50 [4] was 34.8 nM, the CC50 [4] was 8300 nM and the IC (TGI) [4] was 171 nM. It also gave a GI50 [5] of 2.39 nM, a CC50 [5] of 9.63 nM and an IC (TGI) [5] of 4.8 nM. It also gave a GI50 [6] of 0.717 nM, a CC50 [6] of 13000 nM and an IC (TGI) [6] of 150 nM. It also gave a GI50 [7] of 1.02 nM, a CC50 [7] of 6.12 nM and an IC (TGI) [7] of 2.67 nM. For the same molecule, the GI50 [8] was 2.46 nM, the CC50 [8] was 13000 nM and the IC (TGI) [8] was 10.9 nM. For the same molecule, the GI50 [9] was 2.89 nM, the CC50 [9] was 13000 nM and the IC (TGI) [9] was 153 nM. The GI50 [10] was 0.86 nM, the CC50 [10] was 812 nM and the IC (TGI) [10] was 4.71 nM. The GI50 [11] was 320 nM, the CC50 [11] was 13000 nM and the IC (TGI) [11] was 2760 nM. It also gave a GI50 [12] of 5.19 nM, a CC50 [12] of 1120 nM and an IC (TGI) [12] of 36.6 nM. For the same molecule, the GI50 [13] was 4.15 nM, the CC50 [13] was 12500 nM and the IC (TGI) [13] was 10.3 nM. It also gave a GI50 [14] of 3.58 nM, a CC50 [14] of 13000 nM and an IC (TGI) [14] of 13.2 nM.
